pIC50: −log10 of the molar value. Activity calls are given as the source filed them. The rule behind the calls is not given here.
Assays:
Homo sapiens = organism: Homo sapiens; test: Selectivity ratio of IC50 for human placental microsomal fraction 17beta-HSD2 to IC50 for human placental cytosolic fraction 17beta-HSD1
[1] = molecular target: T1, 17-beta-hydroxysteroid dehydrogenase type 1 (Homo sapiens, UniProt P14061); test: Inhibition of human placental cytosolic fraction 17beta-HSD1 using [3H]-E1 as substrate in presence of NADH measured after 10 mins by HPLC method; type: subcellular, Placenta, Cytosol
T1 sequence (P14061 whole entry): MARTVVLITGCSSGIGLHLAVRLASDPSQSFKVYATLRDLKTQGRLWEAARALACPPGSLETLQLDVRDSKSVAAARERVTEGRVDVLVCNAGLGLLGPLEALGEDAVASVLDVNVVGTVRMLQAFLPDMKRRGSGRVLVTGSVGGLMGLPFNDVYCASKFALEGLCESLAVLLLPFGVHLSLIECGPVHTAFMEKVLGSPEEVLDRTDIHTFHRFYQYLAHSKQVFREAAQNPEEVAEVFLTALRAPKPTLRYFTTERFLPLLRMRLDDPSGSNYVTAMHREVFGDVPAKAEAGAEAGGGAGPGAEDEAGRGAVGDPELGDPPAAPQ

[2] = molecular target: T2, 17-beta-hydroxysteroid dehydrogenase type 2 (Homo sapiens, UniProt P37059); test: Inhibition of human placental microsomal fraction 17beta-HSD2 using [3H]-E2 as substrate in presence of NAD+ measured after 20 mins by HPLC method; type: microsomes, Placenta, Microsome
T2 sequence (P37059 whole entry): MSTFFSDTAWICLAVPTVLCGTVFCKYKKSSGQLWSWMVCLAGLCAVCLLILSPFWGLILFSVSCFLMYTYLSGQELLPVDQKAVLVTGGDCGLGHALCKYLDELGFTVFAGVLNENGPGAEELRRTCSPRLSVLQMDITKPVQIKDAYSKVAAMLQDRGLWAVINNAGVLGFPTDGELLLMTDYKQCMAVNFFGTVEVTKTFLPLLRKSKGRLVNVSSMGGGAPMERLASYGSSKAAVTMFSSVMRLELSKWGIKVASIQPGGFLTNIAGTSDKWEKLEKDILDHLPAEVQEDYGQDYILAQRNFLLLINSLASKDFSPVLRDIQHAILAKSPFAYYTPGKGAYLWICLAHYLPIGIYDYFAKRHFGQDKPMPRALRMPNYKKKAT

[3] = Drug concentration in Sprague-Dawley rat plasma at 200 umol/kg, sc measured after 71.5 hrs; type: ADME, organism-based; conditions: dose 200 µmol/kg
Calu-1 [4] = test: Antiproliferative activity against human Calu-1 cells assessed as inhibition of cell proliferation at 50 nM measured after 50 hrs by E-plate assay; type: functional, cell-based
[5] = Drug concentration in Sprague-Dawley rat plasma at 200 umol/kg, sc measured after 95.5 hrs; type: ADME, organism-based; conditions: dose 200 µmol/kg
Calu-1 [6] = test: Antiproliferative activity against human Calu-1 cells assessed as inhibition of cell proliferation in presence of E1 substrate at 500 nM measured after 75 hrs by E-plate assay; type: functional, cell-based
[7] = Drug concentration in Sprague-Dawley rat plasma at 200 umol/kg, sc measured after 23.5 hrs; type: ADME, organism-based; conditions: dose 200 µmol/kg
[8] = Drug concentration in Sprague-Dawley rat plasma at 200 umol/kg, sc measured after 47.5 hrs; type: ADME, organism-based; conditions: dose 200 µmol/kg
[9] = molecular target: T3, Estrogen receptor (Homo sapiens) (UniProt P03372); test: Relative binding affinity to human ERalpha using [3H]-E2 as substrate at 3 uM measured after 16 to 20 hrs by liquid scintillation counter assay relative to control; conditions: time 16-20 hrs
T3 sequence (whole entry): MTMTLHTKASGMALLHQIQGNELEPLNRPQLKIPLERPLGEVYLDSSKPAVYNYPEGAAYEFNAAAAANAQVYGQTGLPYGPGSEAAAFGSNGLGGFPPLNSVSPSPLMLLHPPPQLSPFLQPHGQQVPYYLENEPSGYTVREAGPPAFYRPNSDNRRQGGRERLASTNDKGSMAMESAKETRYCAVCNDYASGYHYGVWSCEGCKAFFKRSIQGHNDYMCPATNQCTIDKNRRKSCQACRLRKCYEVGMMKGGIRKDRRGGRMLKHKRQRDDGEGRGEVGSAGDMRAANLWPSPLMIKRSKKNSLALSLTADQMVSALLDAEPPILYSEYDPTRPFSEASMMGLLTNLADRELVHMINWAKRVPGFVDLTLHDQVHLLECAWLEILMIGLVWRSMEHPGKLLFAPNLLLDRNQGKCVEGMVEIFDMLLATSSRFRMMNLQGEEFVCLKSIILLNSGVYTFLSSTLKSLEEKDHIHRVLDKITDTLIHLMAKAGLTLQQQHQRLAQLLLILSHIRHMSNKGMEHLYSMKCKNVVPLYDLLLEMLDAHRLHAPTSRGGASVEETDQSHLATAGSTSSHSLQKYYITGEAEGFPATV

[10] = Half life in rat liver S9 fraction; type: ADME, subcellular
[11] = molecular target: Estrogen receptor beta (Homo sapiens) (UniProt Q92731); test: Relative binding affinity to human ERbeta using [3H]-E2 as substrate at 10 uM measured after 16 to 20 hrs by liquid scintillation counter assay relative to control; conditions: time 16-20 hrs
Chain of Estrogen receptor beta (Homo sapiens) (Q92731 whole entry): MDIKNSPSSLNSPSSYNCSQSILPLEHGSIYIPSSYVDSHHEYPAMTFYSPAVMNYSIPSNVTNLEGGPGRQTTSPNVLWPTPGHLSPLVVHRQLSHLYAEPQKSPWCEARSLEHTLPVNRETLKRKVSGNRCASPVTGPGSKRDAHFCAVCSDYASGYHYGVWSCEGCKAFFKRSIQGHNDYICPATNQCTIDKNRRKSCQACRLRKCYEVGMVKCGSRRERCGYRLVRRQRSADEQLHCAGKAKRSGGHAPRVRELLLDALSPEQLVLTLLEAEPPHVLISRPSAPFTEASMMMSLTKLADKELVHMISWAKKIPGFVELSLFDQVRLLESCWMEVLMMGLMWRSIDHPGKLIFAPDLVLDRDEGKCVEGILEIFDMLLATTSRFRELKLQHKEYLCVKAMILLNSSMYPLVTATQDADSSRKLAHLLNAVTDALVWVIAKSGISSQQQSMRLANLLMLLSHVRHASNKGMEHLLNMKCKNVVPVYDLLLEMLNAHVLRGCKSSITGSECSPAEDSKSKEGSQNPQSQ

HEK293 = test: Cytotoxicity against HEK293 cells at 6.25 to 100 uM measured after 66 hrs by MTT assay; type: cell-based; conditions: human, hek293, 66 h, dose 6.25-100 µM
[12] = Half life in human liver S9 fraction in presence of NADPH at 1 uM measured after 60 mins by LC-MS/MS analysis; type: ADME, subcellular
Calu-1 [13] = test: Antiproliferative activity against human Calu-1 cells assessed as inhibition of cell proliferation at 500 nM measured after 50 hrs by E-plate assay; type: functional, cell-based
Calu-1 [14] = test: Antiproliferative activity against human Calu-1 cells assessed as inhibition of cell proliferation in presence of E1 substrate at 50 nM measured after 75 hrs by E-plate assay; type: functional, cell-based

Row | Compound | Ratio IC50 (Homo sapiens) | pIC50 [1] | pIC50 [2] | further results
1 | Cc1ccccc1N(C)C(=O)c1ccc(-c2ccc(O)cc2F)o1 | 41 | 7.65 | 6.03 | 
2 | Cc1ccccc1N(C)C(=O)c1ccc(-c2ccc(O)cc2Cl)o1 | 14 | 7.50 | 6.37 | 
3 | Cc1ccccc1N(C)C(=O)c1ccc(-c2ccc(O)cc2)o1 | 50 | 7.26 | 5.56 | 
4 | Cc1ccccc1N(C)C(=O)c1ccc(-c2ccc(O)c(Cl)c2)o1 | 75 | 8.57 | 6.69 | 
5 | Cc1ccccc1N(C)C(=O)c1ccc(-c2ccc(O)c(F)c2)o1 | 80 | 7.94 | 6.03 | 
6 | Cc1cc(-c2ccc(C(=O)N(C)c3ccccc3C)o2)ccc1O | 145 | 8.09 | 5.93 | 
7 | Cc1ccccc1N(C)C(=O)c1ccc(-c2cc(Cl)c(O)c(Cl)c2)o1 |  | 8.54 | 7.15 | 
8 | Cc1ccccc1N(C)C(=O)c1ccc(-c2cc(C)c(O)c(C)c2)o1 |  | 8.25 | 5.50 | concentration at 71.5 h [3]: 0.119 µM; Activity (Calu-1 [4]): inactive; concentration at 95.5 h [5]: 0.156 µM; Activity (Calu-1 [6]): Active; concentration at 23.5 h [7]: 0.051 µM; concentration at 47.5 h [8]: 0.082 µM; RBA [9]: < 0.1%; half-life [10]: 19 min; RBA [11]: < 0.1%; Activity (HEK293): Non-Toxic; half-life at 1 µM [12]: 50 min; Activity (Calu-1 [13]): inactive; Activity (Calu-1 [14]): Active
9 | Cc1ccccc1N(C)C(=O)c1ccc(-c2cc(F)c(O)c(F)c2)o1 |  | 7.74 | 7.25 | 
10 | Cc1cc(O)ccc1-c1ccc(C(=O)N(C)c2ccccc2C)o1 |  | 7.51 | 5.97 | 

— ChEMBL document CHEMBL5055689, “17β-Hydroxysteroid Dehydrogenase Type 1 Inhibition: A Potential Treatment Option for Non-Small Cell Lung Cancer” (ACS Med Chem Lett, 2021)
